{"source": "ChEMBL document CHEMBL1201862", "about": "“PubChem BioAssay data set” (2004)", "key": {"[1]": {"target": "T1, Streptokinase A (Streptococcus pyogenes serotype M1, UniProt P10520)", "T1 sequence (P10520 whole entry)": "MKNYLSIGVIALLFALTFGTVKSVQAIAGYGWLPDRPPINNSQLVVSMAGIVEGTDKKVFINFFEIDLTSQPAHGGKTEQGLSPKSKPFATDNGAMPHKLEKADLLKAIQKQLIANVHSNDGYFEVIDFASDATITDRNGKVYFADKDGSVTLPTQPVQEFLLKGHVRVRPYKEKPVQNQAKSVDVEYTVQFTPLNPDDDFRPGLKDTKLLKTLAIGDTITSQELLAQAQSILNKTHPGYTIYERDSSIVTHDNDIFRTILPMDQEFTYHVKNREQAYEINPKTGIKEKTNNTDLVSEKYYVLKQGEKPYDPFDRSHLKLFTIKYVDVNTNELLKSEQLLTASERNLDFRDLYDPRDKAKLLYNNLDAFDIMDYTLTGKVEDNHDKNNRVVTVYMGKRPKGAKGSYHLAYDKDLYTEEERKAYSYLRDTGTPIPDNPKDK", "assay": "viability-normalized secreted streptokinase activity reduction – plasminogen activation absorbance, OD405, dose response (AID 1914);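 note: secreted streptokinase activity via plasminogen activation per viability signal from cell pellet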", "assay_type": "functional, Streptococcus pyogenes M1 GAS"}, "[2]": {"target": "Nonstructural protein 1 (Influenza A virus, UniProt Q194T2)", "assay_type": "functional, Influenza A virus (A/California/07/2009(H1N1))"}, "[3]": {"target": "T2, Mitochondrial peptide methionine sulfoxide reductase (Bos taurus, UniProt P54149)", "T2 sequence (P54149 whole entry)": "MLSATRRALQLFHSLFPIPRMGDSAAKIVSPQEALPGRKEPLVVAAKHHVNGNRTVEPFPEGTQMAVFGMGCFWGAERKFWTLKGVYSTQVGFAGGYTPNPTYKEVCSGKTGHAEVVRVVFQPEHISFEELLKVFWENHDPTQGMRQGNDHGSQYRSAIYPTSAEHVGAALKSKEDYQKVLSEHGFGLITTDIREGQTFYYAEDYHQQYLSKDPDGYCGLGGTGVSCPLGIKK", "assay_type": "functional"}, "[4]": {"target": "Serine/threonine-protein phosphatase PP1-alpha catalytic subunit (Homo sapiens, UniProt P62136)", "assay": "inhibition of protein phosphatase 1 activity – biochemical, fluorescence, dose response (AID 2394)"}, "[5]": {"target": "SUMO-activating enzyme (Homo sapiens, UniProt Q9UBT2)", "sequence (Q9UBE0 whole entry)": "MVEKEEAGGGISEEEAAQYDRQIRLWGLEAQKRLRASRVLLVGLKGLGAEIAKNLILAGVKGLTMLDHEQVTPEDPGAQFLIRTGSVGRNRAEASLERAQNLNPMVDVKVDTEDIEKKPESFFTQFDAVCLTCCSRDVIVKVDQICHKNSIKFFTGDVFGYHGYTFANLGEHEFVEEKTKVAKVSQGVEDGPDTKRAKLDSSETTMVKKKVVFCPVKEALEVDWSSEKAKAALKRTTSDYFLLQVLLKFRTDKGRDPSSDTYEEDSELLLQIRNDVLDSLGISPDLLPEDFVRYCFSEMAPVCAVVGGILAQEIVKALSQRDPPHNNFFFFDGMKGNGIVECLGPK", "sequence (Q9UBT2 whole entry)": "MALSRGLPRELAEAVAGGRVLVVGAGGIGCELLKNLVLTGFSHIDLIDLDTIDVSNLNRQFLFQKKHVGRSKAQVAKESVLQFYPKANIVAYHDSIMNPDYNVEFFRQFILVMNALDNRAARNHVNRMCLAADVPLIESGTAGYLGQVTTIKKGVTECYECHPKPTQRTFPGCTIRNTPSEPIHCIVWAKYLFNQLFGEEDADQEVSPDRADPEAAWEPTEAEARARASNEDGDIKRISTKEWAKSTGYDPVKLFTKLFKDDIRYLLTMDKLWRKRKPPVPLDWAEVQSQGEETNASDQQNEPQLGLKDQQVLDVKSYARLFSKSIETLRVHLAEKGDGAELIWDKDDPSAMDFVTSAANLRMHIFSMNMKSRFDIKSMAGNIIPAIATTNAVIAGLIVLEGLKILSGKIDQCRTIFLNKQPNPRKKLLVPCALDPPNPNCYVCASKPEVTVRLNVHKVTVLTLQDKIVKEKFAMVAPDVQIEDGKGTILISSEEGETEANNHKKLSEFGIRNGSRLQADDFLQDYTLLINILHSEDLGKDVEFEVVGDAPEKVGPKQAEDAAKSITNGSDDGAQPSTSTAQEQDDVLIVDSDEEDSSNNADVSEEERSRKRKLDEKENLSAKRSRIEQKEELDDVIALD", "assay": "blockers of SAE1/SAE2–UBC9 SUMO transfer – biochemical, HTRF, uHTS, primary screen (AID 2006)", "assay_type": "protein-complex assay"}, "[6]": {"target": "Serine/threonine-protein phosphatase (Homo sapiens, UniProt Q9BPW0)", "sequence (Q9BPW0 whole entry)": "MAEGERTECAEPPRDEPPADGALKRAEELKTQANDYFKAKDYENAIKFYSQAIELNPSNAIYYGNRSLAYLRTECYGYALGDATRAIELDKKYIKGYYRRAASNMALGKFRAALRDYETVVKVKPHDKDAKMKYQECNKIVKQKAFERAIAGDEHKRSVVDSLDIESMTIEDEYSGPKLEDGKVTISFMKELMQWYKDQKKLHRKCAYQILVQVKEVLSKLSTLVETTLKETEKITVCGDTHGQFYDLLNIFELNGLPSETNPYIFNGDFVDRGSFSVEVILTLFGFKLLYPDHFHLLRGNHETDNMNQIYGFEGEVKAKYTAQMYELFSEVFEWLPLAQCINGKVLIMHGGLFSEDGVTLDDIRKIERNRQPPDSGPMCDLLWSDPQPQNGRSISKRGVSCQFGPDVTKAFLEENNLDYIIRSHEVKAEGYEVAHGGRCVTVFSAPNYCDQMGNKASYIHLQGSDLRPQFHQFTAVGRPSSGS", "assay": "inhibition of protein phosphatase 5 activity – biochemical, fluorescence, dose response (AID 2395)"}, "[7]": {"assay": "THP-1 cell cytotoxicity, dose response, cytotoxicity control for non-replicating M. tuberculosis project (AID 489025)", "assay_type": "functional"}, "[8]": {"tested_on": "Vero", "assay": "viability of Vero cells under compound – cytotoxicity control for flavivirus capping enzyme inhibitors (AID 588742)", "assay_type": "functional", "details": "Chlorocebus sabaeus"}, "[9]": {"target": "Genome polyprotein (dengue virus type 2, UniProt P29990)", "assay": "flavivirus cap methylation enzyme inhibition – biochemical, confirmation dose response, primary screen (AID 588689)", "assay_type": "functional"}, "[10]": {"target": "Caspase-9 (Homo sapiens, UniProt P55211)", "assay": "inhibitors of purified CASP9 protease – biochemical, fluorescence, plate reader, cherry-picked samples, selectivity assay for caspase-6 inhibitor project, dose response (AID 743293)"}, "[11]": {"tested_on": "HEK293", "assay": "membrane integrity loss in HEK cells – cell-based, fluorescence, cytotoxicity control for IDE activator project, dose response (AID 588440);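 note: cytotoxicity by LDH release measuring loss of membrane integrity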", "assay_type": "functional", "details": "Homo sapiens"}, "[12]": {"target": "Serine/threonine-protein kinase PLK3 (Homo sapiens, UniProt Q9H4B4)", "assay_type": "functional"}, "[13]": {"target": "ALK tyrosine kinase receptor (Homo sapiens, UniProt Q9UM73)", "assay_type": "functional"}, "[14]": {"target": "Serine/threonine-protein kinase pim-1 (Homo sapiens, UniProt P11309)", "sequence (P11309 whole entry)": "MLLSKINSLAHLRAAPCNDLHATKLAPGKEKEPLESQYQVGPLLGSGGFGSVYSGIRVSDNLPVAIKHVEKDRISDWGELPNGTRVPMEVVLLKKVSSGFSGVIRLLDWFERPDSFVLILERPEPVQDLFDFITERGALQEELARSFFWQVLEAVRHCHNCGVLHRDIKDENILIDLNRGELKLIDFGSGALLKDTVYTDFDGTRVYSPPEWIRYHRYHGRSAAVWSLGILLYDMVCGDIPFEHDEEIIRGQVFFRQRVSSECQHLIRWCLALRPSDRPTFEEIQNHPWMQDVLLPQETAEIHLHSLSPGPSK", "assay_type": "functional"}, "[15]": {"target": "Cell division cycle 7-related protein kinase (Homo sapiens, UniProt O00311)", "assay_type": "functional"}, "[16]": {"target": "Casein kinase II subunit alpha (Homo sapiens, UniProt P68400)", "sequence (P68400 whole entry)": "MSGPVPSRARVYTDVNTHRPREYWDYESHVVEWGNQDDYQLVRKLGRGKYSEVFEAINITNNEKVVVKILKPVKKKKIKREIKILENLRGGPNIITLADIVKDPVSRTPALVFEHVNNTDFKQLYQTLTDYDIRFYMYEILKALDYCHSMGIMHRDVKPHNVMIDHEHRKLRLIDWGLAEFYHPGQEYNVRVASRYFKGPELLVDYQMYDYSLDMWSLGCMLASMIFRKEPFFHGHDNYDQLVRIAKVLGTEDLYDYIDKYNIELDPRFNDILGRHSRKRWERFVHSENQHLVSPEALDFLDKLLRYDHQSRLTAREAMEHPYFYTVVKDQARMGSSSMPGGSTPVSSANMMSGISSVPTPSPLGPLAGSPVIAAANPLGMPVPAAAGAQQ", "assay_type": "functional"}, "[17]": {"target": "Serine/threonine-protein kinase PAK 4 (Homo sapiens, UniProt O96013)", "sequence (O96013 whole entry)": "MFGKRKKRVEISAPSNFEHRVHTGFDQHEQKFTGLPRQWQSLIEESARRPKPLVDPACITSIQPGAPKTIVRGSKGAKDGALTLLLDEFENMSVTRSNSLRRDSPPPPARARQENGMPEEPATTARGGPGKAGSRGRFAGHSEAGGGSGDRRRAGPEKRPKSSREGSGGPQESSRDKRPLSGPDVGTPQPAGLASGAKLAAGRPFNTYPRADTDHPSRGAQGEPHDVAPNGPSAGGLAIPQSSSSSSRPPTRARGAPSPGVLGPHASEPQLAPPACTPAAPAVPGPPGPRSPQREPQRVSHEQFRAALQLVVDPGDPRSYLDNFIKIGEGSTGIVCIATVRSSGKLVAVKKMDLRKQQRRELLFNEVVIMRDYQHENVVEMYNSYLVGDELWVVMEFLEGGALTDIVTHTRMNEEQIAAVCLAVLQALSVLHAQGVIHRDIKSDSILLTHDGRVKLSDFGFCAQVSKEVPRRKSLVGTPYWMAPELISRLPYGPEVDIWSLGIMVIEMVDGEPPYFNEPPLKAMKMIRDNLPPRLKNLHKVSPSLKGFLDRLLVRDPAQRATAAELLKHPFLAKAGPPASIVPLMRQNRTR", "assay_type": "functional"}, "[18]": {"target": "Ribosomal protein S6 kinase alpha-5 (Homo sapiens, UniProt O75582)", "assay_type": "functional"}, "[19]": {"target": "Protein-tyrosine kinase 2-beta (Homo sapiens, UniProt Q14289)", "sequence (Q14289 whole entry)": "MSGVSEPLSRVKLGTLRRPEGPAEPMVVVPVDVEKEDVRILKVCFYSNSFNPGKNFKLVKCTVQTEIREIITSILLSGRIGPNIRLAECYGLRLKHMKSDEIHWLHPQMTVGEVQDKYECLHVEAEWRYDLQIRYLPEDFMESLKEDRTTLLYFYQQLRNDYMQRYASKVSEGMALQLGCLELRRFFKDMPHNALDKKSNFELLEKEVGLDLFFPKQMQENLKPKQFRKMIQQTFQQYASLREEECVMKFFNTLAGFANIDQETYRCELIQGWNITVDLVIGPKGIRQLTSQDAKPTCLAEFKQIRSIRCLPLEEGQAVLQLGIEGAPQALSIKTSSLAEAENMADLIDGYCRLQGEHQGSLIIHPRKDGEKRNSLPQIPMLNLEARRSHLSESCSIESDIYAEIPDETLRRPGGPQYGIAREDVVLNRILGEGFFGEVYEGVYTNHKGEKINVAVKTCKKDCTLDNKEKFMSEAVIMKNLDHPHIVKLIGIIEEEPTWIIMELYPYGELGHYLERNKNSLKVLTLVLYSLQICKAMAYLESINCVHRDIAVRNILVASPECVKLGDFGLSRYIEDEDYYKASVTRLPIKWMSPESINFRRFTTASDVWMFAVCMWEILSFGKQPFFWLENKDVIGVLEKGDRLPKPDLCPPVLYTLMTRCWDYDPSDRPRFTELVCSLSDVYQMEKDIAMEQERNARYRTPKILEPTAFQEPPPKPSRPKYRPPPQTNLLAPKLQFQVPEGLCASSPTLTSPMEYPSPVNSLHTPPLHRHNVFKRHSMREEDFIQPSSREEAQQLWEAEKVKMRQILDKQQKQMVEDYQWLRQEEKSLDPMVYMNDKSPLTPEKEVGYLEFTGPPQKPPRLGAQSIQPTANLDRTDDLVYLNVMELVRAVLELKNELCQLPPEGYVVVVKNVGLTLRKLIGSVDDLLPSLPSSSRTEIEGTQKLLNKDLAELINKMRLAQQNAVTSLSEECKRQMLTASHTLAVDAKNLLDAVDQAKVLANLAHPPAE", "assay_type": "functional"}, "[20]": {"target": "Mitogen-activated protein kinase 13 (Homo sapiens, UniProt O15264)", "assay_type": "functional"}, "[21]": {"target": "Glycogen synthase kinase-3 alpha (Homo sapiens, UniProt P49840)", "assay_type": "functional"}, "[22]": {"target": "Serine/threonine-protein kinase Chk1 (Homo sapiens, UniProt O14757)", "sequence (O14757 whole entry)": "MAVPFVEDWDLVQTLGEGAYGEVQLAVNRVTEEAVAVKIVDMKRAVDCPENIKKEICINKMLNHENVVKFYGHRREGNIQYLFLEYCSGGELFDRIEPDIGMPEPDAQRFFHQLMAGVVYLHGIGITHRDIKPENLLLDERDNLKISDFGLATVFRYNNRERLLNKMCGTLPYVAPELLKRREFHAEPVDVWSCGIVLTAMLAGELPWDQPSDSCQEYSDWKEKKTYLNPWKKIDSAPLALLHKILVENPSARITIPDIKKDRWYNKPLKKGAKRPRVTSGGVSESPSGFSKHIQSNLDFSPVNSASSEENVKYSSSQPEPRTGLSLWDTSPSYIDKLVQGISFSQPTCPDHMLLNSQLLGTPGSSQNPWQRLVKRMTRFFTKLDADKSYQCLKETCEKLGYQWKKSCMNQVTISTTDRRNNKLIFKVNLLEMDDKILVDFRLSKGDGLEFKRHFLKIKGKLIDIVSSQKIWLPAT", "assay_type": "functional"}, "[23]": {"target": "Tyrosine-protein kinase ABL1 (Homo sapiens, UniProt P00519)", "assay_type": "functional"}, "[24]": {"target": "Mitogen-activated protein kinase 1 (Homo sapiens, UniProt P28482)", "assay_type": "functional"}, "[25]": {"target": "Aurora kinase B (Homo sapiens, UniProt Q96GD4)", "assay_type": "functional"}, "[26]": {"target": "Calcium/calmodulin-dependent protein kinase type 1 (Homo sapiens, UniProt Q14012)", "sequence (Q14012 whole entry)": "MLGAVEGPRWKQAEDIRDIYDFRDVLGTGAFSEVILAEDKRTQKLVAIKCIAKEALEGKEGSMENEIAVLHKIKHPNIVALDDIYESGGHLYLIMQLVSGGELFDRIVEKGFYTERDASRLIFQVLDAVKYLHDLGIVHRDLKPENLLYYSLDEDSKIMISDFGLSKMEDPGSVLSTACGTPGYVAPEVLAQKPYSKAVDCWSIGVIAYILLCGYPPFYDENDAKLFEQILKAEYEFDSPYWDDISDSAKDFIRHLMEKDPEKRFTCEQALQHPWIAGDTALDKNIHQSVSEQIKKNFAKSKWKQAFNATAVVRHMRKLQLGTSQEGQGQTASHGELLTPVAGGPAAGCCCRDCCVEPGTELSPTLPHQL", "assay_type": "functional"}, "[27]": {"target": "Serine/threonine-protein kinase PLK1 (Homo sapiens, UniProt P53350)", "assay_type": "functional"}, "[28]": {"target": "Receptor tyrosine-protein kinase erbB-4 (Homo sapiens, UniProt Q15303)", "assay_type": "functional"}, "[29]": {"target": "Lymphokine-activated killer T-cell-originated protein kinase (Homo sapiens, UniProt Q96KB5)", "sequence (Q96KB5 whole entry)": "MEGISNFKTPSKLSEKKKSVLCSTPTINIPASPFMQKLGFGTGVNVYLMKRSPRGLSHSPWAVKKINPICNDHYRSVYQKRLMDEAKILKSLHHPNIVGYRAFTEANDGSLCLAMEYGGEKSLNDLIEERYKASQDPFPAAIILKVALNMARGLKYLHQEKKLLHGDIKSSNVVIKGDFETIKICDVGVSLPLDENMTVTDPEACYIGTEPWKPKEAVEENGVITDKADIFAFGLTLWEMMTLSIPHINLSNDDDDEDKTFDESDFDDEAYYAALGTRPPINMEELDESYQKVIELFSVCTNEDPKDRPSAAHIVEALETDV", "assay_type": "functional"}}, "note": "Calls of active or inactive are those of the source.", "data": [{"smiles": "Cc1ccc(S(=O)(=O)/N=C2\\C=C(Nc3cccc(C(=O)O)c3)C(=O)c3ccccc32)cc1", "values": [{"measurement": "EC50", "setting": "[1]", "result": "47.3 µM (active)"}, {"measurement": "IC50", "setting": "[2]", "result": "19.9 µM (active)"}, {"measurement": "IC50", "setting": "[3]", "result": "42.4 µM (inactive)"}]}, {"smiles": "Cc1ccc(C(=O)NC2(O)C(=O)c3ccccc3C2=O)cc1C", "values": [{"measurement": "IC50", "setting": "[4]", "result": "> 67 µM (not active)"}, {"measurement": "IC50", "setting": "[5]", "result": "5.71 µM (active)"}, {"measurement": "IC50", "setting": "[6]", "result": "> 0.828 µM (active)"}]}, {"smiles": "O=[N+]([O-])c1c(Nc2ccccn2)cc(Cl)c2nonc12", "values": [{"measurement": "CC50", "setting": "[7]", "result": "20.3 µM (active)"}, {"measurement": "CC50", "setting": "[8]", "result": "16.8 µM (active)"}, {"measurement": "IC50", "setting": "[9]", "result": "20 µM (active)"}, {"measurement": "AC50", "setting": "[10]", "result": "17.4 µM (active)"}]}, {"smiles": "CC[C@@H](C)[C@H](CNC)NC[C@@H](Cc1cccc2ccccc12)NCCc1cccc(C(F)(F)F)c1", "values": [{"measurement": "IC50", "setting": "[11]", "result": "8.67 µM (active)"}]}, {"smiles": "CC(C)(CO)CNc1nccc(-c2c(-c3ccc(F)cc3)nc3c(CC4CC4)nccn23)n1", "values": [{"measurement": "Ki", "setting": "[12]", "result": "> 7.94 µM (inactive)"}, {"measurement": "Ki", "setting": "[13]", "result": "> 1.26 µM (inactive)"}, {"measurement": "Ki", "setting": "[14]", "result": "> 10 µM (inactive)"}, {"measurement": "Ki", "setting": "[15]", "result": "> 1.26 µM (inactive)"}, {"measurement": "Ki", "setting": "[16]", "result": "> 6.31 µM (inactive)"}, {"measurement": "Ki", "setting": "[17]", "result": "> 5.01 µM (inactive)"}, {"measurement": "Ki", "setting": "[18]", "result": "> 2 µM (inactive)"}, {"measurement": "Ki", "setting": "[19]", "result": "> 1.58 µM (inactive)"}, {"measurement": "Ki", "setting": "[20]", "result": "> 7.94 µM (inactive)"}, {"measurement": "Ki", "setting": "[21]", "result": "> 7.94 µM (inactive)"}, {"measurement": "Ki", "setting": "[22]", "result": "> 7.94 µM (inactive)"}, {"measurement": "Ki", "setting": "[23]", "result": "> 0.631 µM (inactive)"}, {"measurement": "Ki", "setting": "[24]", "result": "6.31 µM (active)"}, {"measurement": "Ki", "setting": "[25]", "result": "> 6.31 µM (inactive)"}, {"measurement": "Ki", "setting": "[26]", "result": "> 5.01 µM (inactive)"}, {"measurement": "Ki", "setting": "[27]", "result": "> 7.94 µM (inactive)"}, {"measurement": "Ki", "setting": "[28]", "result": "> 3.98 µM (inactive)"}, {"measurement": "Ki", "setting": "[29]", "result": "0.316 µM (active)"}]}]}
